Measured values taken from paper PMC12652692, “Synthesis and In Vitro Anticancer Evaluation of Novel Phosphonium Derivatives of Chrysin” (International Journal of Molecular Sciences, 2025).

Assays:
Test in all cases: NCI60 one-dose screen
Format in all cases: cell-based
RPMI-8226 = details: Homo sapiens; RPMI-8226, 10 μM; read-out: Growth percent
How it was run: (§1)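 Tumour cell growth in RPMI 1640 plus 5% FBS was assessed after 48 h exposure to 10 µM compound, using SRB staining and A515. A value of 0 denotes no net growth and −20 denotes 20% lethality.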

CAKI-1 = details: Homo sapiens; CAKI-1, 10 μM; read-out: Growth percent
How it was run: as §1

MOLT-4 = details: Homo sapiens; MOLT-4, 10 μM; read-out: Growth percent
How it was run: as §1

MDA-MB-468 = details: Homo sapiens; MDA-MB-468, 10 μM; read-out: Growth percent
How it was run: as §1

OVCAR-3 = details: Homo sapiens; OVCAR-3, 10 μM; read-out: Growth percent
How it was run: as §1

MCF7 = details: Homo sapiens; MCF7, 10 μM; read-out: Growth percent
How it was run: as §1

UO-31 = details: Homo sapiens; UO-31, 10 μM; read-out: Growth percent
How it was run: as §1

SF-539 = details: Homo sapiens; SF-539, 10 μM; read-out: Growth percent
How it was run: as §1

786-0 = details: Homo sapiens; 786-0, 10 μM; read-out: Growth percent
How it was run: as §1

A498 = details: Homo sapiens; A498, 10 μM; read-out: Growth percent
How it was run: as §1

COLO 205 = details: Homo sapiens; COLO 205, 10 μM; read-out: Growth percent
How it was run: as §1

OVCAR-4 = details: Homo sapiens; OVCAR-4, 10 μM; read-out: Growth percent
How it was run: as §1

K-562 = details: Homo sapiens, K562; K-562, 10 μM; read-out: Growth percent
How it was run: as §1

HT29 = details: Homo sapiens, HT-29; HT29, 10 μM; read-out: Growth percent
How it was run: as §1

M14 = details: Homo sapiens; M14, 10 μM; read-out: Growth percent
How it was run: as §1

NCI-H522 = details: Homo sapiens; NCI-H522, 10 μM; read-out: Growth percent
How it was run: as §1

IGROV1 = details: Homo sapiens, IGROV-1; IGROV1, 10 μM; read-out: Growth percent
How it was run: as §1

HOP-62 = details: Homo sapiens; HOP-62, 10 μM; read-out: Growth percent
How it was run: as §1

KM12 = details: Homo sapiens; KM12, 10 μM; read-out: Growth percent
How it was run: as §1

MALME-3M = details: Homo sapiens, read-out: Growth percent
How it was run: as §1

## O=c1cc(-c2ccccc2)oc2cc(O)cc(O)c12 [compound 2, 5,7-dihydroxyflavone, reference compound]
RPMI-8226
  activity at 10 µM: 101%
CAKI-1
  activity at 10 µM: 83.6%
MOLT-4
  activity at 10 µM: 106%
MDA-MB-468
  activity at 10 µM: 91.1%
OVCAR-3
  activity at 10 µM: 97.6%
MCF7
  activity at 10 µM: 103%
UO-31
  activity at 10 µM: 89.4%
SF-539
  activity at 10 µM: 92.2%
786-0
  activity at 10 µM: 99.2%
A498
  activity at 10 µM: 86.6%
COLO 205
  activity at 10 µM: 105%
OVCAR-4
  activity at 10 µM: 112%
K-562
  activity at 10 µM: 96.8%
HT29
  activity at 10 µM: 103%
M14
  activity at 10 µM: 107%
NCI-H522
  activity at 10 µM: 89%
IGROV1
  activity at 10 µM: 95.2%
HOP-62
  activity at 10 µM: 113%
KM12
  activity at 10 µM: 92.9%
MALME-3M
  activity at 10 µM: 102%
